Measured values from publication PMC10411625, “Rationally designed stapled peptides allosterically inhibit PTBP1–RNA-binding” (Chemical Science, 2023).

Columns and labels:
PTBP1 RRM12-L151G = molecular target: T1, PTBP1 RRM12-L151G (Homo sapiens, UniProt P26599, L151G); experiment: Competitive fluorescence polarization assay, RRM12-L151G and RNA-2; format: binding; conditions: Fig. 3C; competitive FP with RNA-2; read-out: P-6 Ki, construct RRM12-L151G
T1 construct: (P57-V265); MBP (from pMAL vector); His tag; made in house; host or cells: E. coli BL21 DE3 RIL
T1 sequence (P26599 57-265 L151G): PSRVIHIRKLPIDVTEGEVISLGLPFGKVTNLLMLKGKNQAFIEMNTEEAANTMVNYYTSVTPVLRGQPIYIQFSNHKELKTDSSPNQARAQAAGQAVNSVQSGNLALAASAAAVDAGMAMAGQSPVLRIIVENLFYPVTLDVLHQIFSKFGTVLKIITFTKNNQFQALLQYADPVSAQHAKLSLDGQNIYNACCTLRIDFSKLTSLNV
Description: (§1) Different PTBP1 variants were used to investigate the mode of action of P-6via competitive FP experiments. As illustrated in Fig. 1A there is a short linker between RRM1 and the α3-helix which also makes contacts with the RNA. It is possible that when P-6 occupies the binding site of the helix, this linker is displaced disrupting its interactions with the RNA and lowering the RNA-binding affinity. To test this, we measured whether P-6 could inhibit RRM1 RNA-binding. […] Therefore, it seems most likely that P-6 inhibits RRM12 via disturbing the coordinated RNA-binding of the two RRM domains. As this is possibly regulated by the helix we tested if the peptide could inhibit RRM12–L151G where the role of the helix is reduced (Fig. 3C and S5 ^†). […] These findings further support a mode of action where P-6 disturbs coordinated RNA-binding by RRM1 and 2. […]
(§2) size exclusion chromatography (Superdex 75 16/60 or 26/60) with SEC buffer (50 mM Tris, 200 mM NaCl). Protein homogeneity was assessed by the size exclusion chromatogram and purity was checked by SDS-PAGE analysis to be >= 90%.
(§3) The gene encoding for SRSF1-RRM12 (1-195) was subcloned into pOPIN-His expression vector and expressed in E. coli BL21 (DE3). […]
(§4) Fluorescence polarization assay with PTBP1 […]

PTBP1 RRM1 = molecular target: T2, PTBP1 RRM1 (Homo sapiens, UniProt P26599); experiment: Competitive fluorescence polarization assay, RRM1 and RNA-2; format: binding; conditions: Fig. 3C; competitive FP with RNA-2; read-out: P-6 Ki, construct RRM1
T2 construct: (G41-A163); His tag; made in house; host or cells: E. coli BL21 DE3 RIL
T2 sequence (P26599 41-163): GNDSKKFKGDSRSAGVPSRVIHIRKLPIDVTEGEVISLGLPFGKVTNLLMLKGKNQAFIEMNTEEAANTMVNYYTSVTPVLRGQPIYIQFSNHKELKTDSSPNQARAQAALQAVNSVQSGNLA
Description: as §1, §2, §3, §4

**Q.** `CC(=O)N[C@@H](CC(N)=O)C(=O)N[C@@H](CCC(N)=O)C(=O)N[C@@]1(C)CCCC=CCCCC2(CCCC=CCCC[C@](C)(C(=O)N[C@H](C(=O)N[C@@H](CC(N)=O)C(N)=O)C(C)C)NC(=O)[C@H](CCC(N)=O)NC(=O)[C@H](CC(C)C)NC(=O)[C@H](C)NC2=O)NC(=O)[C@H](CCC(N)=O)NC(=O)[C@H](C)NC(=O)[C@H](CCCNC(=N)N)NC1=O` (some centres unmarked) [Peptide P-6] was tested. Which Ki (PTBP1 RRM12-L151G) did it give?
**A.** > 750 µM

**Q.** And the Ki (PTBP1 RRM1)?
**A.** > 750 µM
